Numbered stars: 1 amine (or outer) side, 2 acyl side, 3 side chain; on linkers, the order of the positions; unused ones are H or OH. Bridge positions count the residues as written; N and C are the ends. Square brackets hold non-standard residues; d marks the D form. Peptide text beside a SMILES is read from it. I, II: the chains in the order shown. ξ: configuration not given here. X1 = N[C@@H](CC(=O)[*:1])C(=O)[*:2]; Dap = NC[C@H](N)C(=O)O; ξD = NC(CC(=O)O)C(=O)O
Experiment: Binding affinity to MTDH /His-SND1 (unknown origin) expressed in Escherichia coli BL21(DE3) assessed as dissociation constant by fluorescence polarization assay
Design: species or system Homo sapiens
Conditions: not given; call rule not given here
In the case of `CC(C)[C@H](NC(=O)[C@H](Cc1c[nH]c2ccccc12)NC(=O)[C@H](CC(N)=O)NC(=O)CNC(=O)[C@H](Cc1c[nH]c2ccccc12)NC(=O)[C@H](CCC(=O)O)NC(=O)[C@H](CCC(=O)O)NC(=O)[C@H](C)NC(=O)[C@@H]1CCCN1C(=O)[C@@H]1CNC(=O)[C@@H](NC(=O)[C@@H](N)CC(=O)O)CC(=O)N[C@@H](Cc2c[nH]c3ccccc23)C(=O)N[C@@H](CC(N)=O)C(=O)N1)C(=O)N[C@@H](CC(=O)O)C(=O)N[C@@H](CCC(=O)O)C(N)=O`, the Kd is reported as 121 nM. `C[C@@H]1NC(=O)C[C@H](N)C(=O)NC[C@@H](C(=O)N[C@@H](CC(=O)O)C(=O)N[C@@H](Cc2c[nH]c3ccccc23)C(=O)N[C@@H](CC(N)=O)C(=O)N[C@@H](C)C(=O)N2CCC[C@H]2C(=O)N[C@@H](C)C(=O)N[C@@H](CCC(=O)O)C(=O)N[C@@H](CCC(=O)O)C(=O)N[C@@H](Cc2c[nH]c3ccccc23)C(=O)NCC(=O)N[C@@H](CC(N)=O)C(N)=O)NC(=O)[C@H](C)NC1=O` (AA[Dap]DWNAPAEEWGN-NH2; linker N-3 via X1) gave a Kd of 231 nM. In the case of `CC[C@H](C)[C@H](NC(=O)[C@H](CC(N)=O)NC(=O)[C@H](Cc1c[nH]c2ccccc12)NC(=O)[C@H](CC(=O)O)NC(=O)[C@@H]1CNC(=O)[C@@H](N)CC(=O)N[C@@H](C)C(=O)N[C@@H](C)C(=O)N1)C(=O)N[C@@H](Cc1ccc(O)cc1)C(=O)N[C@@H](C)C(=O)N[C@@H](Cc1ccc(O)cc1)C(=O)N[C@@H](CCC(=O)O)C(=O)N[C@@H](Cc1c[nH]c2ccccc12)C(=O)NCC(=O)N[C@@H](CC(N)=O)C(=O)N[C@@H](CC(=O)O)C(N)=O` (AA[Dap]DWNIYAYEWGND-NH2; linker N-3 via X1), the Kd is reported as 443 nM. For `CC[C@H](C)[C@H](NC(=O)[C@H](CC(N)=O)NC(=O)[C@H](Cc1c[nH]c2ccccc12)NC(=O)[C@H](CC(=O)O)NC(=O)[C@@H]1CNC(=O)[C@@H](N)CC(=O)N[C@@H](C)C(=O)N[C@@H](C)C(=O)N1)C(=O)N[C@@H](Cc1ccc(O)cc1)C(=O)N[C@@H](C)C(=O)N[C@@H](Cc1ccc(O)cc1)C(=O)N[C@@H](CCC(=O)O)C(=O)N[C@@H](Cc1c[nH]c2ccccc12)C(=O)NCC(=O)N[C@@H](CC(N)=O)C(=O)N[C@@H](CCC(=O)O)C(N)=O` (AA[Dap]DWNIYAYEWGNE-NH2; linker N-3 via X1), the Kd was 451 nM. `CC[C@H](C)[C@H](NC(=O)[C@H](CC(N)=O)NC(=O)[C@H](Cc1c[nH]c2ccccc12)NC(=O)[C@H](CC(=O)O)NC(=O)[C@@H]1CNC(=O)[C@@H](N)CC(=O)N[C@@H](C)C(=O)N[C@@H](C)C(=O)N1)C(=O)N[C@@H](Cc1ccc(O)cc1)C(=O)N[C@@H](C)C(=O)N[C@@H](Cc1ccc(O)cc1)C(=O)N[C@@H](CCC(=O)O)C(=O)N[C@@H](Cc1c[nH]c2ccccc12)C(=O)NCC(=O)N[C@@H](CC(N)=O)C(=O)N[C@@H](Cc1c[nH]cn1)C(N)=O` (AA[Dap]DWNIYAYEWGNH-NH2; linker N-3 via X1) gave a Kd of 671 nM. Compound `C[C@H](NC(=O)[C@@H]1CCCN1C(=O)[C@H](C)NC(=O)[C@H](CC(N)=O)NC(=O)[C@H](Cc1c[nH]c2ccccc12)NC(=O)[C@@H](N)CC(=O)O)C(=O)N[C@@H](CCC(=O)O)C(=O)N[C@@H](CCC(=O)O)C(=O)N[C@@H](Cc1c[nH]c2ccccc12)C(=O)NCC(=O)N[C@@H](CC(N)=O)C(=O)O` (H-DWNAPAEEWGN-OH) has a Kd of 211 nM. `CC(C)[C@H](NC(=O)[C@H](Cc1c[nH]c2ccccc12)NC(=O)[C@H](CC(N)=O)NC(=O)CNC(=O)[C@H](Cc1c[nH]c2ccccc12)NC(=O)[C@H](CCC(=O)O)NC(=O)[C@@H]1CNC(=O)CC(NC(=O)[C@H](CC(N)=O)NC(=O)[C@H](Cc2c[nH]c3ccccc23)NC(=O)[C@@H](N)CC(=O)O)C(=O)N2CCC[C@H]2C(=O)N[C@@H](C)C(=O)N1)C(=O)N[C@@H](CC(=O)O)C(=O)N[C@@H](CCC(=O)O)C(N)=O` (stereo partly specified) (H-DWN[ξD]PA[Dap]EWGNWVDE-NH2; lactam 4-7) gave a Kd of 171 nM. `CC(C)[C@H](NC(=O)[C@H](Cc1c[nH]c2ccccc12)NC(=O)[C@H](CC(N)=O)NC(=O)CNC(=O)[C@H](Cc1c[nH]c2ccccc12)NC(=O)[C@H](CCC(=O)O)NC(=O)[C@H](CCC(=O)O)NC(=O)[C@H](C)NC(=O)[C@@H]1CCCN1C(=O)[C@H](C)NC(=O)[C@H](CC(N)=O)NC(=O)[C@H](Cc1c[nH]c2ccccc12)NC(=O)[C@H](CC(=O)O)NC(=O)[C@H](CO)NC(=O)[C@@H](N)CC(N)=O)C(=O)O` (H-NSDWNAPAEEWGNWV-OH) showed a Kd of 152 nM. Compound `C[C@H](NC(=O)[C@H](CO)NC(=O)[C@@H](N)CO)C(=O)N[C@@H](CC(=O)O)C(=O)N1CCC[C@H]1C(=O)N[C@@H](CC(N)=O)C(=O)N[C@@H](CO)C(=O)N[C@@H](CC(=O)O)C(=O)N[C@@H](Cc1c[nH]c2ccccc12)C(=O)N[C@@H](CC(N)=O)C(=O)N[C@@H](C)C(=O)N1CCC[C@H]1C(=O)N[C@@H](C)C(=O)N[C@@H](CCC(=O)O)C(=O)N[C@@H](CCC(=O)O)C(=O)N[C@@H](Cc1c[nH]c2ccccc12)C(=O)NCC(=O)N[C@@H](CC(N)=O)C(=O)O` (H-SSADPNSDWNAPAEEWGN-OH) has a Kd of 118 nM. In the case of `CC(C)[C@H](NC(=O)[C@H](Cc1c[nH]c2ccccc12)NC(=O)[C@H](CC(N)=O)NC(=O)CNC(=O)[C@H](Cc1c[nH]c2ccccc12)NC(=O)[C@H](CCC(=O)O)NC(=O)[C@H](CCC(=O)O)NC(=O)[C@H](C)NC(=O)[C@@H]1CCCN1C(=O)[C@H](C)NC(=O)[C@H](CC(N)=O)NC(=O)[C@H](Cc1c[nH]c2ccccc12)NC(=O)[C@H](CC(=O)O)NC(=O)[C@H](CO)NC(=O)[C@H](CC(N)=O)NC(=O)[C@@H]1CCCN1C(=O)[C@H](CC(=O)O)NC(=O)[C@H](C)NC(=O)[C@H](CO)NC(=O)[C@@H](N)CO)C(=O)N[C@@H](CC(=O)O)C(=O)N[C@@H](CCC(=O)O)C(=O)O` (H-SSADPNSDWNAPAEEWGNWVDE-OH), the Kd is reported as 62.4 nM. For `CC(C)[C@H](NC(=O)[C@H](Cc1c[nH]c2ccccc12)NC(=O)[C@H](CC(N)=O)NC(=O)CNC(=O)[C@H](Cc1c[nH]c2ccccc12)NC(=O)[C@@H]1CNC(=O)[C@@H](NC(=O)[C@H](C)NC(=O)[C@H](CC(N)=O)NC(=O)[C@H](Cc2c[nH]c3ccccc23)NC(=O)[C@@H](N)CC(=O)O)CC(=O)N[C@@H](C)C(=O)N[C@@H](CCC(=O)O)C(=O)N1)C(=O)N[C@@H](CC(=O)O)C(=O)N[C@@H](CCC(=O)O)C(N)=O` (I: AE[Dap]WGNWVDE-NH2 / II: H-DWNAD; amide I:3-II:C, I:N-II:5), the Kd was 171 nM. With `C[C@H](NC(=O)[C@H](CC(N)=O)NC(=O)[C@@H]1CNC(=O)[C@@H](N)CC(=O)N[C@@H](Cc2c[nH]c3ccccc23)C(=O)N[C@@H](CC(N)=O)C(=O)N1)C(=O)N[C@@H](CCC(=O)O)C(=O)N[C@@H](CCC(=O)O)C(=O)N[C@@H](Cc1c[nH]c2ccccc12)C(=O)NCC(=O)N[C@@H](CC(N)=O)C(N)=O` (WN[Dap]NAEEWGN-NH2; linker N-3 via X1) the Kd was 697 nM. For `C[C@H](NC(=O)[C@H](CC(N)=O)NC(=O)[C@@H]1CNC(=O)[C@@H](N)CC(=O)N[C@@H](Cc2c[nH]c3ccccc23)C(=O)N[C@@H](CC(N)=O)C(=O)N1)C(=O)N[C@@H](Cc1ccccc1)C(=O)N[C@@H](CCC(=O)O)C(=O)N[C@@H](Cc1c[nH]c2ccccc12)C(=O)NCC(=O)N[C@@H](CC(N)=O)C(N)=O` (WN[Dap]NAFEWGN-NH2; linker N-3 via X1), the Kd was 1720 nM. In the case of `C[C@H](NC(=O)[C@H](CC(N)=O)NC(=O)[C@@H]1CNC(=O)[C@@H](N)CC(=O)N[C@@H](Cc2c[nH]c3ccccc23)C(=O)N[C@@H](CC(N)=O)C(=O)N1)C(=O)N[C@@H](Cc1ccc(O)cc1)C(=O)N[C@@H](CCC(=O)O)C(=O)N[C@@H](Cc1c[nH]c2ccccc12)C(=O)NCC(=O)N[C@@H](CC(N)=O)C(N)=O` (WN[Dap]NAYEWGN-NH2; linker N-3 via X1), the Kd is reported as 932 nM. `C[C@H](NC(=O)[C@@H]1CCCN1C(=O)[C@@H]1CNC(=O)[C@@H](N)CC(=O)N[C@@H](Cc2c[nH]c3ccccc23)C(=O)N[C@@H](CC(N)=O)C(=O)N1)C(=O)N[C@@H](CCC(=O)O)C(=O)N[C@@H](CCC(=O)O)C(=O)N[C@@H](Cc1c[nH]c2ccccc12)C(=O)NCC(=O)N[C@@H](CC(N)=O)C(N)=O` (WN[Dap]PAEEWGN-NH2; linker N-3 via X1) showed a Kd of 584 nM. For `C[C@H](NC(=O)[C@@H]1CCCN1C(=O)[C@@H]1CNC(=O)[C@@H](N)CC(=O)N[C@@H](Cc2c[nH]c3ccccc23)C(=O)N[C@@H](CC(N)=O)C(=O)N1)C(=O)N[C@@H](Cc1ccccc1)C(=O)N[C@@H](CCC(=O)O)C(=O)N[C@@H](Cc1c[nH]c2ccccc12)C(=O)NCC(=O)N[C@@H](CC(N)=O)C(N)=O` (WN[Dap]PAFEWGN-NH2; linker N-3 via X1), the Kd was 992 nM. `C[C@H](NC(=O)[C@@H]1CCCN1C(=O)[C@@H]1CNC(=O)[C@@H](N)CC(=O)N[C@@H](Cc2c[nH]c3ccccc23)C(=O)N[C@@H](CC(N)=O)C(=O)N1)C(=O)N[C@@H](Cc1ccc(O)cc1)C(=O)N[C@@H](CCC(=O)O)C(=O)N[C@@H](Cc1c[nH]c2ccccc12)C(=O)NCC(=O)N[C@@H](CC(N)=O)C(N)=O` (WN[Dap]PAYEWGN-NH2; linker N-3 via X1) gave a Kd of 585 nM. `C[C@H](NC(=O)[C@H](Cc1ccc(O)cc1)NC(=O)[C@@H]1CNC(=O)[C@@H](N)CC(=O)N[C@@H](Cc2c[nH]c3ccccc23)C(=O)N[C@@H](CC(N)=O)C(=O)N1)C(=O)N[C@@H](Cc1ccc(O)cc1)C(=O)N[C@@H](CCC(=O)O)C(=O)N[C@@H](Cc1c[nH]c2ccccc12)C(=O)NCC(=O)N[C@@H](CC(N)=O)C(N)=O` (WN[Dap]YAYEWGN-NH2; linker N-3 via X1) gave a Kd of 943 nM.

Experiment: Drug uptake in human MDA-MB-231 cells assessed as increase in cell penetration at 10 uM incubated for 12 hrs by flow cytometry method
Type: ADME, cell-based
Conditions: mda-mb-231, 12 h
For `CC(C)[C@H](NC(=O)[C@H](Cc1c[nH]c2ccccc12)NC(=O)[C@H](CC(N)=O)NC(=O)CNC(=O)[C@H](Cc1c[nH]c2ccccc12)NC(=O)[C@H](CCC(=O)O)NC(=O)[C@H](CCC(=O)O)NC(=O)[C@H](C)NC(=O)[C@@H]1CCCN1C(=O)[C@@H]1CNC(=O)[C@@H](NC(=O)[C@@H](N)CC(=O)O)CC(=O)N[C@@H](Cc2c[nH]c3ccccc23)C(=O)N[C@@H](CC(N)=O)C(=O)N1)C(=O)N[C@@H](CC(=O)O)C(=O)N[C@@H](CCC(=O)O)C(N)=O`, the Drug uptake was “Active”. With `CC(C)[C@H](NC(=O)[C@H](Cc1c[nH]c2ccccc12)NC(=O)[C@H](CC(N)=O)NC(=O)CNC(=O)[C@H](Cc1c[nH]c2ccccc12)NC(=O)[C@H](CCC(=O)O)NC(=O)[C@@H]1CNC(=O)CC(NC(=O)[C@H](CC(N)=O)NC(=O)[C@H](Cc2c[nH]c3ccccc23)NC(=O)[C@@H](N)CC(=O)O)C(=O)N2CCC[C@H]2C(=O)N[C@@H](C)C(=O)N1)C(=O)N[C@@H](CC(=O)O)C(=O)N[C@@H](CCC(=O)O)C(N)=O` (stereo partly specified) (H-DWN[ξD]PA[Dap]EWGNWVDE-NH2; lactam 4-7) the Drug uptake was “Active”. For `CC(C)[C@H](NC(=O)[C@H](Cc1c[nH]c2ccccc12)NC(=O)[C@H](CC(N)=O)NC(=O)CNC(=O)[C@H](Cc1c[nH]c2ccccc12)NC(=O)[C@@H]1CNC(=O)[C@@H](NC(=O)[C@H](C)NC(=O)[C@H](CC(N)=O)NC(=O)[C@H](Cc2c[nH]c3ccccc23)NC(=O)[C@@H](N)CC(=O)O)CC(=O)N[C@@H](C)C(=O)N[C@@H](CCC(=O)O)C(=O)N1)C(=O)N[C@@H](CC(=O)O)C(=O)N[C@@H](CCC(=O)O)C(N)=O` (I: AE[Dap]WGNWVDE-NH2 / II: H-DWNAD; amide I:3-II:C, I:N-II:5), the Drug uptake was “Active”.

Source: ChEMBL document CHEMBL5113517, “Structure-Based Design, Optimization, and Evaluation of Potent Stabilized Peptide Inhibitors Disrupting MTDH and SND1 Interaction” (J Med Chem, 2022)
